One block for each compound: values may come before it.
Test system: 598228-144-R-J1-PDC complex spheroids, viability
Assay: Anticancer human tumor 598228-144-R-J1-PDC patient-derived serous endometrial adenocarcinoma cell line growth inhibition [CLK]
Conditions: for IC50: curve of first compound; for viability, T/C: stronger effect = lower value
How it was run: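 Patient-derived tumor cells grown as complex spheroids with HUVEC endothelial cells and mesenchymal stem cells, treated with drug combinations. Concentrations descend in half-log steps from near clinical Cmax, or from 10 microM if Cmax unknown.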

[1] = second compound 0.0316 µM, first compound 0.0316 µM
[2] = second compound 0.0316 µM, first compound 0.1 µM
[3] = second compound 0.0316 µM, first compound 0.316 µM
[4] = second compound 0.0316 µM, first compound 1 µM
[5] = second compound 0.0316 µM, first compound 3.16 µM
[6] = second compound 0.0316 µM, first compound 10 µM
[7] = second compound 0.1 µM, first compound 0.0316 µM
[8] = second compound 0.1 µM, first compound 0.1 µM
[9] = second compound 0.1 µM, first compound 0.316 µM
[10] = second compound 0.1 µM, first compound 1 µM
[11] = second compound 0.1 µM, first compound 3.16 µM
[12] = second compound 0.1 µM, first compound 10 µM
[13] = second compound 0.316 µM, first compound 0.0316 µM
[14] = second compound 0.316 µM, first compound 0.1 µM
[15] = second compound 0.316 µM, first compound 0.316 µM
[16] = second compound 0.316 µM, first compound 1 µM
[17] = second compound 0.316 µM, first compound 3.16 µM
[18] = second compound 0.316 µM, first compound 10 µM
[19] = second compound 1 µM, first compound 0.0316 µM
[20] = second compound 1 µM, first compound 0.1 µM
[21] = second compound 1 µM, first compound 0.316 µM
[22] = second compound 1 µM, first compound 1 µM
[23] = second compound 1 µM, first compound 3.16 µM
[24] = second compound 1 µM, first compound 10 µM
[25] = second compound 3.16 µM, first compound 0.0316 µM
[26] = second compound 3.16 µM, first compound 0.1 µM
[27] = second compound 3.16 µM, first compound 0.316 µM
[28] = second compound 3.16 µM, first compound 1 µM
[29] = second compound 3.16 µM, first compound 3.16 µM
[30] = second compound 3.16 µM, first compound 10 µM
[31] = second compound 10 µM, first compound 0.0316 µM
[32] = second compound 10 µM, first compound 0.1 µM
[33] = second compound 10 µM, first compound 0.316 µM
[34] = second compound 10 µM, first compound 1 µM
[35] = second compound 10 µM, first compound 3.16 µM
[36] = second compound 10 µM, first compound 10 µM
[37] = second compound 0.0316 µM, first compound 0.00316 µM
[38] = second compound 0.0316 µM, first compound 0.01 µM
[39] = second compound 0.1 µM, first compound 0.00316 µM
[40] = second compound 0.1 µM, first compound 0.01 µM
[41] = second compound 0.316 µM, first compound 0.00316 µM
[42] = second compound 0.316 µM, first compound 0.01 µM
[43] = second compound 1 µM, first compound 0.00316 µM
[44] = second compound 1 µM, first compound 0.01 µM
[45] = second compound 3.16 µM, first compound 0.00316 µM
[46] = second compound 3.16 µM, first compound 0.01 µM
[47] = second compound 10 µM, first compound 0.00316 µM
[48] = second compound 10 µM, first compound 0.01 µM
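Note: spheroids exposed to compounds for seven days before readout.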
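Throughout, for viability, T/C: 100% = DMSO vehicle control wells.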

IC50 (second compound 0.0316 µM): < 31.6 nM
IC50 (second compound 0.1 µM): > 10000 nM
IC50 (second compound 0.316 µM): > 10000 nM
IC50 (second compound 1 µM): > 10000 nM
IC50 (second compound 3.16 µM): > 10000 nM
IC50 (second compound 10 µM): > 10000 nM
Structure (SMILES): CC(=O)O[C@H]1C(=O)[C@@]2(C)[C@H]([C@H](OC(=O)c3ccccc3)[C@]3(O)C[C@H](OC(=O)[C@H](O)[C@@H](NC(=O)c4ccccc4)c4ccccc4)C(C)=C1C3(C)C)[C@]1(OC(C)=O)CO[C@@H]1C[C@@H]2O + CNC(=O)c1ccc(Nc2nc(OC3CCCC3)c3c(-c4ccc5nc(C)oc5c4)c[nH]c3n2)c(OC)c1
viability, T/C [1]: 45.6%
viability, T/C [2]: 46.2%
viability, T/C [3]: 40.3%
viability, T/C [4]: 40.9%
viability, T/C [5]: 45.2%
viability, T/C [6]: 50.6%
viability, T/C [7]: 70%
viability, T/C [8]: 58%
viability, T/C [9]: 64.8%
viability, T/C [10]: 66.2%
viability, T/C [11]: 57.4%
viability, T/C [12]: 67%
viability, T/C [13]: 121%
viability, T/C [14]: 123%
viability, T/C [15]: 94.9%
viability, T/C [16]: 108%
viability, T/C [17]: 106%
viability, T/C [18]: 84.1%
viability, T/C [19]: 120%
viability, T/C [20]: 102%
viability, T/C [21]: 92.5%
viability, T/C [22]: 125%
viability, T/C [23]: 109%
viability, T/C [24]: 86.8%
viability, T/C [25]: 102%
viability, T/C [26]: 96.2%
viability, T/C [27]: 103%
viability, T/C [28]: 108%
viability, T/C [29]: 105%
viability, T/C [30]: 92.1%
viability, T/C [31]: 101%
viability, T/C [32]: 97%
viability, T/C [33]: 109%
viability, T/C [34]: 103%
viability, T/C [35]: 90.4%
viability, T/C [36]: 107%

IC50 (second compound 0.0316 µM): 51.5 nM
IC50 (second compound 0.1 µM): 56.4 nM
IC50 (second compound 0.316 µM): 100 nM
IC50 (second compound 1 µM): 61.5 nM
IC50 (second compound 3.16 µM): 54.2 nM
IC50 (second compound 10 µM): 33.2 nM
Structure (SMILES): CCc1c2c(nc3ccc(O)cc13)-c1cc3c(c(=O)n1C2)COC(=O)[C@]3(O)CC + CNC(=O)c1ccc(Nc2nc(OC3CCCC3)c3c(-c4ccc5nc(C)oc5c4)c[nH]c3n2)c(OC)c1
viability, T/C [37]: 91%
viability, T/C [38]: 77.3%
viability, T/C [1]: 65.9%
viability, T/C [2]: 30.8%
viability, T/C [3]: 14.4%
viability, T/C [4]: 6.44%
viability, T/C [39]: 106%
viability, T/C [40]: 84.5%
viability, T/C [7]: 65.2%
viability, T/C [8]: 38.5%
viability, T/C [9]: 16.2%
viability, T/C [10]: 14.9%
viability, T/C [41]: 124%
viability, T/C [42]: 111%
viability, T/C [13]: 97%
viability, T/C [14]: 48.3%
viability, T/C [15]: 21.6%
viability, T/C [16]: 10.5%
viability, T/C [43]: 117%
viability, T/C [44]: 95%
viability, T/C [19]: 73.8%
viability, T/C [20]: 33.2%
viability, T/C [21]: 16.3%
viability, T/C [22]: 10.8%
viability, T/C [45]: 108%
viability, T/C [46]: 95.9%
viability, T/C [25]: 63.9%
viability, T/C [26]: 32.9%
viability, T/C [27]: 17.3%
viability, T/C [28]: 8.19%
viability, T/C [47]: 110%
viability, T/C [48]: 85.9%
viability, T/C [31]: 49.3%
viability, T/C [32]: 27.5%
viability, T/C [33]: 13.8%
viability, T/C [34]: 9.24%

IC50 (second compound 0.0316 µM): > 100 nM
IC50 (second compound 0.1 µM): > 100 nM
IC50 (second compound 0.316 µM): > 100 nM
IC50 (second compound 1 µM): > 100 nM
IC50 (second compound 3.16 µM): > 100 nM
IC50 (second compound 10 µM): > 100 nM
Structure (SMILES): Cn1ncnc1[C@H]1c2n[nH]c(=O)c3cc(F)cc(c23)N[C@@H]1c1ccc(F)cc1 + CNC(=O)c1ccc(Nc2nc(OC3CCCC3)c3c(-c4ccc5nc(C)oc5c4)c[nH]c3n2)c(OC)c1
viability, T/C (second compound 0.0316 µM, first compound 0.000316 µM): 111%
viability, T/C (second compound 0.0316 µM, first compound 0.001 µM): 118%
viability, T/C [37]: 122%
viability, T/C [38]: 121%
viability, T/C [1]: 114%
viability, T/C [2]: 108%
viability, T/C (second compound 0.1 µM, first compound 0.000316 µM): 109%
viability, T/C (second compound 0.1 µM, first compound 0.001 µM): 122%
viability, T/C [39]: 120%
viability, T/C [40]: 121%
viability, T/C [7]: 112%
viability, T/C [8]: 96.8%
viability, T/C (second compound 0.316 µM, first compound 0.000316 µM): 114%
viability, T/C (second compound 0.316 µM, first compound 0.001 µM): 119%
viability, T/C [41]: 92%
viability, T/C [42]: 115%
viability, T/C [13]: 118%
viability, T/C [14]: 98.1%
viability, T/C (second compound 1 µM, first compound 0.000316 µM): 112%
viability, T/C (second compound 1 µM, first compound 0.001 µM): 109%
viability, T/C [43]: 107%
viability, T/C [44]: 117%
viability, T/C [19]: 117%
viability, T/C [20]: 99.3%
viability, T/C (second compound 3.16 µM, first compound 0.000316 µM): 101%
viability, T/C (second compound 3.16 µM, first compound 0.001 µM): 99.2%
viability, T/C [45]: 99.7%
viability, T/C [46]: 118%
viability, T/C [25]: 104%
viability, T/C [26]: 105%
viability, T/C (second compound 10 µM, first compound 0.000316 µM): 105%
viability, T/C (second compound 10 µM, first compound 0.001 µM): 115%
viability, T/C [47]: 99.5%
viability, T/C [48]: 105%
viability, T/C [31]: 82.5%
viability, T/C [32]: 128%

IC50 (second compound 0.0316 µM): < 31.6 nM
IC50 (second compound 0.1 µM): < 31.6 nM
IC50 (second compound 0.316 µM): 54.3 nM
IC50 (second compound 1 µM): 53.7 nM
IC50 (second compound 3.16 µM): 48.9 nM
IC50 (second compound 10 µM): 44.9 nM
Structure (SMILES): Nc1ccn(C2OC(CO)C(O)C2(F)F)c(=O)n1 (stereo not given) + CNC(=O)c1ccc(Nc2nc(OC3CCCC3)c3c(-c4ccc5nc(C)oc5c4)c[nH]c3n2)c(OC)c1
viability, T/C [1]: 50.8%
viability, T/C [2]: 36.9%
viability, T/C [3]: 27.4%
viability, T/C [4]: 34.7%
viability, T/C [5]: 39%
viability, T/C [6]: 34.4%
viability, T/C [7]: 57.3%
viability, T/C [8]: 33.6%
viability, T/C [9]: 26.9%
viability, T/C [10]: 36.3%
viability, T/C [11]: 36.4%
viability, T/C [12]: 34.7%
viability, T/C [13]: 63.4%
viability, T/C [14]: 34.5%
viability, T/C [15]: 32.2%
viability, T/C [16]: 29.6%
viability, T/C [17]: 39.5%
viability, T/C [18]: 37%
viability, T/C [19]: 65.3%
viability, T/C [20]: 32.6%
viability, T/C [21]: 23.9%
viability, T/C [22]: 29%
viability, T/C [23]: 36.4%
viability, T/C [24]: 28.7%
viability, T/C [25]: 63%
viability, T/C [26]: 24.2%
viability, T/C [27]: 26.2%
viability, T/C [28]: 24.3%
viability, T/C [29]: 34.3%
viability, T/C [30]: 33.6%
viability, T/C [31]: 60.2%
viability, T/C [32]: 26.9%
viability, T/C [33]: 21.4%
viability, T/C [34]: 22.6%
viability, T/C [35]: 26.5%
viability, T/C [36]: 31.5%

IC50 (second compound 0.0316 µM): > 10000 nM
IC50 (second compound 0.1 µM): > 10000 nM
IC50 (second compound 0.316 µM): > 10000 nM
IC50 (second compound 1 µM): > 10000 nM
IC50 (second compound 3.16 µM): > 10000 nM
IC50 (second compound 10 µM): > 10000 nM
Structure (SMILES): O=c1[nH]cc(F)c(=O)[nH]1 + CNC(=O)c1ccc(Nc2nc(OC3CCCC3)c3c(-c4ccc5nc(C)oc5c4)c[nH]c3n2)c(OC)c1
viability, T/C [1]: 99.7%
viability, T/C [2]: 113%
viability, T/C [3]: 107%
viability, T/C [4]: 103%
viability, T/C [5]: 99.9%
viability, T/C [6]: 86.5%
viability, T/C [7]: 116%
viability, T/C [8]: 111%
viability, T/C [9]: 128%
viability, T/C [10]: 115%
viability, T/C [11]: 101%
viability, T/C [12]: 76.6%
viability, T/C [13]: 108%
viability, T/C [14]: 106%
viability, T/C [15]: 110%
viability, T/C [16]: 112%
viability, T/C [17]: 96.2%
viability, T/C [18]: 90%
viability, T/C [19]: 102%
viability, T/C [20]: 99.7%
viability, T/C [21]: 94.5%
viability, T/C [22]: 101%
viability, T/C [23]: 93.4%
viability, T/C [24]: 83.6%
viability, T/C [25]: 95%
viability, T/C [26]: 97%
viability, T/C [27]: 97.1%
viability, T/C [28]: 83.1%
viability, T/C [29]: 94.5%
viability, T/C [30]: 77.3%
viability, T/C [31]: 87.8%
viability, T/C [32]: 86.6%
viability, T/C [33]: 89.8%
viability, T/C [34]: 88.5%
viability, T/C [35]: 77.8%
viability, T/C [36]: 65.2%
